{"source": "paper PMC11206695", "about": "“Chemical Behavior and Bioactive Properties of Spinorphin Conjugated to 5,5′-Dimethyl- and 5,5′-Diphenylhydantoin Analogs” (Pharmaceuticals, 2024)", "key": {"[1]": {"test_system": "ivPTZ-induced myoclonic, clonic and tonic seizures in mice", "experiment": "Intravenous pentylenetetrazole seizure (ivPTZ) test", "format": "in vivo", "details": "i.c.v., doses of 0.62 µg and 1.25 µg, vs. vehicle-infused control (p < 0.05; p < 0.01)", "method": "(§1) The spinorphin peptide analogues (S, Dm-S, Dm-S5, and Dm-S6 or PhS, PhS5, and PhS6) were administered intracerebroventricularly (i.c.v.) (10 μL/ventricle) at doses of 0.6, 1.2, and 2.4 μg, respectively, using a 28-gauge stainless-steel needle attached to a 50-μL Hamilton® syringe as previously described. The matched group (control) was treated with a vehicle. The seizure test was performed 10 min after the i.c.v. infusion.\nIntravenous Pentylenetetrazole Seizure (ivPTZ) Test The convulsant pentylenetetrazole (PTZ) (1%), dissolved in saline, was infused (0.005 mL/s) into a tail vein as previously performed. The activity to raise the threshold of ivPTZ-induced myoclonic, clonic, and tonic seizures and concentrations, quantity of infusion (mL), and mouse body weight were recorded."}, "[2]": {"experiment": "Potentiometric titration for pK and pI", "format": "physicochemical", "details": "12 µmol peptide, room temperature", "method": "Potentiometric titrations were performed to determine acid–base constants at room temperature using a potentiometric cell with a combined glass electrode and OMINS titration system (Metrohm). An OMNIS Digital Burette with an accuracy of ±0.01 mL was used to precisely add the titrant portions to the titrated aliquot (12 µmol) of the stock solution of the peptide compounds. The potentiometric titration results were processed mathematically to construct the titration curves and calculate the acid–base constants according to […] [16]. Isoelectric points correspond to pH points where the analyte and titrant interact in equimolar amounts (pH at the equivalence point)."}, "[3]": {"test_system": "psychomotor seizures (6-Hz test) in mice", "experiment": "6-Hz test", "format": "in vivo", "details": "i.c.v.; for No. of Animals Protected/No. of Animals Tested: 10 min after infusion", "method": "as §1\n6-Hz test. Psychomotor seizures were induced by corneal electrodes (constant current shock generator, 32 mA, 6 Hz, 3 s) as previously described. The return to a normal position, 10 s after stimulation, was used as a criterion for protection against psychomotor seizures."}, "[4]": {"test_system": "Escherichia coli", "experiment": "Antibacterial disc diffusion", "format": "cell-based", "details": "20 µL of 50 mg/mL on 6 mm disc, 24 h, 37 °C", "method": "Antibacterial activity is carried out with reference to the slightly modified method of Murray et al.. The bacteria used were Staphylococcus aureus, Escherichia coli, and Bacillus cereus. To test the antibacterial activity of 6 peptides, it is carried out as follows: taking 100 μL of spectrum bacteria ([…] bacteria) spread on the nutrient agar medium (NA). Furthermore, a paper disc (6 mm in diameter) was placed and then 20 μL of extract with a concentration of 50 mg/mL was dripped onto it. As a positive control, we used […] of chloramphenicol on the paper disc. DMSO 10% is used as a negative control according to peptide solvents. The treatment was repeated three times and then incubated for 24 h at a temperature of 37 °C. After that, an inhibitory power test measurement was carried out by measuring the diameter of the clear zone formed."}, "[5]": {"test_system": "generalized seizures (MES test) in mice", "experiment": "Maximal electroshock (MES) test", "format": "in vivo", "details": "i.c.v.", "method": "as §1\nThe generalized seizures were induced through a stronger stimulus of 50 mA, 60 Hz, 0.2 s, applied via the same corneal electrodes, in each mouse tested. The suppression of tonic hind limb extension, replaced by a clonic seizure, was accepted as a valid criterion for the anticonvulsant potency of the drug."}, "[6]": {"details": "isoelectric point = pH at equivalence point, potentiometric titration"}, "[7]": {"details": "potentiometric titration with NaOH, aqueous"}}, "note": "Marks after values point to notes of the source that are not given here."}
{"substance": "H-LVVYPWT-NH2 [S, H-Leu-Val-Val-Tyr-Pro-Trp-Thr-NH2]", "values": [{"measurement": "Activity against myoclonic twitching, clonic seizures and forelimb tonic seizures (ivPTZ)", "setting": "[1]", "result": "anticonvulsant activity"}, {"measurement": "pI1", "setting": "[2]; [6]", "result": 4.91}, {"measurement": "pI2", "setting": "[2]; [6]", "result": 8.31}, {"measurement": "pKa1", "setting": "[2]; [7]", "result": 3.15}, {"measurement": "pKa2", "setting": "[2]; [7]", "result": 6.78}, {"measurement": "% Protection", "setting": "[3]; dose 0.62 µg/10 µL", "result": 50, "unit": "%"}, {"measurement": "No. of Animals Protected/No. of Animals Tested", "setting": "[3]; dose 0.62 µg/10 µL", "result": "3/6"}, {"measurement": "% Protection", "setting": "[3]; dose 1.25 µg/10 µL", "result": 50, "unit": "%"}, {"measurement": "No. of Animals Protected/No. of Animals Tested", "setting": "[3]; dose 1.25 µg/10 µL", "result": "3/6"}, {"measurement": "% Protection", "setting": "[3]; dose 2.5 µg/10 µL", "result": 67, "unit": "% *"}, {"measurement": "No. of Animals Protected/No. of Animals Tested", "setting": "[3]; dose 2.5 µg/10 µL", "result": "4/6"}, {"measurement": "Antibacterial activity against E. coli (inhibitory zone, in words)", "setting": "[4]", "result": "outperformed peptide analogues"}, {"measurement": "% Mortality", "setting": "[5]; MES test, dose 0.62 µg/10 µL", "result": 0, "unit": "%"}, {"measurement": "% Mortality", "setting": "[5]; MES test, dose 1.25 µg/10 µL", "result": 30, "unit": "%"}, {"measurement": "% Mortality", "setting": "[5]; MES test, dose 2.5 µg/10 µL", "result": 50, "unit": "%"}, {"measurement": "% Protection", "setting": "[5]; MES test, dose 2.5 µg/10 µL", "result": 50, "unit": "%"}, {"measurement": "No. of Animals Protected/No. of Animals Tested", "setting": "[5]; MES test, dose 2.5 µg/10 µL, 10 min after infusion", "result": "3/6"}, {"measurement": "Activity in the MES test (in words)", "setting": "[5]; text summary of Tables 4 and 5", "result": "inactive"}]}
